# Results: BindingDB's records for doi:10.7270/Q2CV4GM1 (D3R/Abbott, 2015)
# Where “and” joins values, the source holds several entries; their conditions need not be identical. Identical values can stand only once.
# Target: T1, Tyrosine-protein kinase SYK [355-635] (Homo sapiens, UniProt P43405)
# T1 construct: 355-635
# Assay: SYK assay_HTRF
row,SMILES,IC50
1,COCCN(c1ccnc(Nc2ccc3cnn(C)c3c2)n1)c1cccc2[nH]ncc12 [GTC000313A],0.0166 µM
2,COCCCN(c1nc(Nc2cccc(-c3ocnc3C)c2)ncc1F)c1cccc2[nH]ncc12 [GTC000315A],0.0163 µM
3,Cc1ncoc1-c1cccc(Nc2ncc(F)c(N(C)c3cccc4[nH]ncc34)n2)c1 [GTC000316A],0.0164 µM
4,CCN(c1nc(Nc2cccc(-c3cnco3)c2)ncc1Cl)c1cccc2[nH]ncc12 [GTC000317A],0.00993 µM and 0.0248 µM and 0.0413 µM
5,COCCN(c1ccnc(Nc2ccc3nn[nH]c3c2)n1)c1cccc2[nH]ncc12 [GTC000322A],0.0205 µM
6,COCCN(c1ccnc(Nc2cccc(-c3ocnc3C)c2)n1)c1cccc2[nH]ncc12 [GTC000323A],0.0215 µM
7,COCCCN(c1ccnc(Nc2cccc(C(N)=O)c2)n1)c1cccc2[nH]ncc12 [GTC000324A],0.0128 µM and 0.0619 µM
8,CCN(c1nc(Nc2ccc3cn[nH]c3c2)ncc1Cl)c1cccc2[nH]ncc12 [GTC000328A],0.0152 µM and 0.0296 µM and 0.0505 µM and 0.0122 µM
9,CCN(CC)CCCN(c1ccnc(Nc2cccc(S(N)(=O)=O)c2)n1)c1cccc2[nH]ncc12 [GTC000329A],0.0232 µM and 0.0127 µM and 0.0557 µM and 0.0253 µM
10,CCN(CC)CCCN(c1ccnc(Nc2ccc3c(c2)C(=O)NS3(=O)=O)n1)c1cccc2[nH]ncc12 [GTC000332A],0.0239 µM
11,CCN(c1nc(Nc2ccc3cnn(C)c3c2)ncc1Cl)c1cccc2[nH]ncc12 [GTC000334A],0.024 µM
12,COCCN(c1ccnc(Nc2cccc(S(N)(=O)=O)c2)n1)c1cccc2[nH]ncc12 [GTC000335A],0.0224 µM
13,CN(c1nc(Nc2cccc(S(N)(=O)=O)c2)ncc1F)c1cccc2[nH]ncc12 [GTC000337A],0.0228 µM
14,CS(=O)(=O)c1cccc(Nc2nccc(N(CCCO)c3cccc4[nH]ncc34)n2)c1 [GTC000338A],0.0116 µM and 0.0397 µM and 0.0851 µM
15,CC(=O)N1CCC(CN(c2ccnc(Nc3ccc4[nH]c(=O)[nH]c4c3)n2)c2cccc3[nH]ncc23)CC1 [GTC000339A],0.0431 µM and 0.0268 µM
16,CCN(c1nc(Nc2cccc(-c3cccnc3)c2)ncc1F)c1cccc2[nH]ncc12 [GTC000340A],0.0293 µM
17,CCN(c1nc(Nc2cc(S(N)(=O)=O)ccc2OC)ncc1F)c1cccc2[nH]ncc12 [GTC000341A],0.0305 µM
18,COCCN(c1ccnc(Nc2ccc3c(cnn3C)c2)n1)c1cccc2[nH]ncc12 [GTC000345A],0.0308 µM
19,CN(c1nc(Nc2ccc(C(N)=O)cc2)ncc1F)c1cccc2[nH]ncc12 [GTC000351A],0.0366 µM
20,COCCCN(c1ccnc(Nc2cccc(S(C)(=O)=O)c2)n1)c1cccc2[nH]ncc12 [GTC000352A],0.0231 µM and 0.0993 µM
21,CCN(c1nc(Nc2cccc(S(N)(=O)=O)c2)ncc1Cl)c1cccc2[nH]ncc12 [GTC000355A],0.0569 µM
22,NS(=O)(=O)c1cccc(Nc2nccc(N(CCCCO)c3cccc4[nH]ncc34)n2)c1 [GTC000356A],0.0593 µM
23,CCN(c1nc(Nc2ccc(-c3cnco3)c(OC)c2)ncc1F)c1cccc2[nH]ncc12 [GTC000362A],0.0873 µM
24,CCN(c1nc(Nc2ccc(N3CCN(C)CC3)cc2)ncc1F)c1cccc2[nH]ncc12 [GTC000363A],0.105 µM
25,CCN(c1nc(Nc2cc(S(N)(=O)=O)ccc2C)ncc1F)c1cccc2[nH]ncc12 [GTC000364A],0.102 µM
26,NS(=O)(=O)c1cccc(Nc2nccc(N(CC(F)(F)F)c3cccc4[nH]ncc34)n2)c1 [GTC000365A],0.0982 µM
27,CCN(CC)CCCN(c1ccnc(Nc2ccc3c(c2)CNS3(=O)=O)n1)c1cccc2[nH]ncc12 [GTC000368A],0.229 µM and 0.0883 µM
28,CCN(c1nc(Nc2ccc3c(C)n(CCCO)nc3c2)ncc1F)c1cccc2[nH]ncc12 [GTC000370A],0.188 µM
29,CCN(c1nc(Nc2ccc(C(=O)N3CCN(C)CC3)cc2)ncc1F)c1cccc2[nH]ncc12 [GTC000372A],0.244 µM
30,CCN(c1nc(Nc2cc(S(=O)(=O)NCC3CCCO3)ccc2OC)ncc1F)c1cccc2[nH]ncc12 (stereo unspecified) [GTC000373A],0.624 µM

# Now from value to compound:
row,IC50,SMILES
1,0.0157 µM,O=S1(=O)NCc2ccc(Nc3nccc(N(CC(F)(F)F)c4cccc5[nH]ncc45)n3)cc21 [GTC000314A]
2,0.0134 µM and 0.0352 µM,CCN(c1nc(Nc2cccc(C(N)=O)c2)ncc1F)c1cccc2[nH]ncc12 [GTC000318A]
3,0.0182 µM,CCN(c1nc(Nc2ccc3c(c2)CCN3C(C)=O)ncc1F)c1cccc2[nH]ncc12 [GTC000319A]
4,0.0214 µM,CCN(c1nc(Nc2cccc(-c3noc(C)n3)c2)ncc1F)c1cccc2[nH]ncc12 [GTC000320A]
5,0.0212 µM,CCN(c1nc(Nc2ccc3[nH]c(=O)n(C)c3c2)ncc1F)c1cccc2[nH]ncc12 [GTC000321A]
6,0.0101 µM and 0.0557 µM and 0.0293 µM,CCN(c1nc(Nc2ccc3ncsc3c2)ncc1F)c1cccc2[nH]ncc12 [GTC000325A]
7,0.0135 µM and 0.0173 µM and 0.0667 µM,CCN(c1nc(Nc2ccc3c(c2)C(=O)NC3)ncc1F)c1cccc2[nH]ncc12 [GTC000326A]
8,0.0121 µM and 0.0215 µM and 0.0438 µM,CCN(c1nc(Nc2ccc3c(c2)S(=O)(=O)NC3)ncc1Br)c1cccc2[nH]ncc12 [GTC000327A]
9,0.0362 µM and 0.0194 µM,CCN(c1nc(Nc2ccc3c(c2)S(=O)(=O)N(CC2CC2)C3)ncc1F)c1cccc2[nH]ncc12 [GTC000330A]
10,0.0238 µM,CCN(c1nc(Nc2cccc(N3CCN(C)CC3)c2)ncc1F)c1cccc2[nH]ncc12 [GTC000331A]
11,0.0273 µM,CCN(c1nc(Nc2ccc(CCO)cc2)ncc1F)c1cccc2[nH]ncc12 [GTC000333A]
12,0.0256 µM,COCCCN(c1nc(Nc2ccc3nn[nH]c3c2)ncc1F)c1cccc2[nH]ncc12 [GTC000336A]
13,0.0338 µM,CCN(c1nc(Nc2cccc(S(=O)(=O)NC3CC3)c2)ncc1F)c1cccc2[nH]ncc12 [GTC000342A]
14,0.0327 µM,CCN(c1nc(Nc2ccc(C)c(S(=O)(=O)NCCO)c2)ncc1F)c1cccc2[nH]ncc12 [GTC000343A]
15,0.0318 µM,NC(=O)c1cccc(Nc2ncc(F)c(N(CCCO)c3cccc4[nH]ncc34)n2)c1 [GTC000344A]
16,0.0303 µM,COCCCN(c1nc(Nc2cccc(C(N)=O)c2)ncc1F)c1cccc2[nH]ncc12 [GTC000346A]

row,IC50,SMILES
1,0.0333 µM,COCCCN(c1nc(Nc2cccc(S(C)(=O)=O)c2)ncc1F)c1cccc2[nH]ncc12 [GTC000347A]
2,0.0305 µM,CCN(c1nc(Nc2ccc(N)c(OC(C)=O)c2)ncc1F)c1cccc2[nH]ncc12 [GTC000348A]
3,0.0359 µM,CCN(c1nc(Nc2ccc(C)c(S(N)(=O)=O)c2)ncc1F)c1cccc2[nH]ncc12 [GTC000349A]
4,0.0406 µM,CCCN(c1nc(Nc2ccc3c(c2)S(=O)(=O)CC3)ncc1F)c1cccc2[nH]ncc12 [GTC000350A]
5,0.0325 µM and 0.109 µM,CCN(c1nc(Nc2ccc3c(c2)C(=O)N(C)C3)ncc1F)c1cccc2[nH]ncc12 [GTC000353A]
6,0.059 µM,CCN(c1nc(Nc2ccc3c(c2)CCN3C(=O)C(F)(F)F)ncc1F)c1cccc2[nH]ncc12 [GTC000354A]
7,0.0679 µM,CCN(c1nc(Nc2ccc3c(c2)NC(=O)CO3)ncc1F)c1cccc2[nH]ncc12 [GTC000357A]
8,0.0818 µM,CNC(=O)CN(c1nc(Nc2ccc3c(c2)S(=O)(=O)NC3)ncc1F)c1cccc2[nH]ncc12 [GTC000358A]
9,0.0873 µM,CN(c1nc(Nc2cccc(S(C)(=O)=O)c2)ncc1F)c1cccc2[nH]ncc12 [GTC000359A]
10,0.0794 µM,CS(=O)(=O)c1cccc(Nc2ncc(F)c(N(CCCO)c3cccc4[nH]ncc34)n2)c1 [GTC000360A]
11,0.0723 µM,CCN(c1nc(Nc2ccc3[nH]c(=O)oc3c2)ncc1F)c1cccc2[nH]ncc12 [GTC000361A]
12,0.11 µM,CN(c1nc(Nc2cccc(C(N)=O)c2)ncc1F)c1cccc2[nH]ncc12 [GTC000366A]
13,0.0815 µM and 0.174 µM and 0.157 µM and 0.171 µM,CNC(=O)CN(c1nc(Nc2ccc3c(c2)S(=O)(=O)CC3)ncc1F)c1cccc2[nH]ncc12 [GTC000367A]
14,0.198 µM,NC(=O)CN(c1nc(Nc2ccc3c(c2)S(=O)(=O)CC3)ncc1F)c1cccc2[nH]ncc12 [GTC000369A]
15,0.225 µM,NCCN(c1nc(Nc2ccc3c(c2)S(=O)(=O)CC3)ncc1F)c1cccc2[nH]ncc12 [GTC000371A]
